Data on two compounds can be found in BindingDB's records for doi:10.1021/acs.jnatprod.9b00663 (University of Utah, 2019).

Usually IC50 stands for the midpoint of a concentration-inhibition curve. Read a high IC50 as lower potency.

For this assay, the target named is Low molecular weight phosphotyrosine protein phosphatase (Homo sapiens) (UniProt P24666). In words: Inhibition of LMWPTP (unknown origin) using DiFMUP as substrate incubated for 30 mins followed by substrate addition at pH 6.5 by standard phosphatase assay based fluorescence analysis.
Sequence of Low molecular weight phosphotyrosine protein phosphatase (Homo sapiens) (P24666 whole entry, looked up): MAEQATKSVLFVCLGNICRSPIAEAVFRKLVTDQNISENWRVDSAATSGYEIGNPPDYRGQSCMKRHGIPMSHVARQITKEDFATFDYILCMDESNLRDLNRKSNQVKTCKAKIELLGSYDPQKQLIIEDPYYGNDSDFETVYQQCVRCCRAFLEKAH

Some results are limits rather than exact numbers.

On to `CC1(C)Cc2c(O)c(C=O)c3c(c2C1)C(=O)OC(O)C3` (configuration not stated) [Illudalic acid], for which the IC50 is above 100 µM.

The compound `COc1c(C=O)c2c(c3c1CC(C)(C)C3)C(=O)OC(O)C2` (configuration not stated) [3-Hydroxy-6-methoxy-8,8-dimethyl-1-oxo-1,3,4,7,8,9-hexahydro-cyclopenta[h]isochromene-5-carbaldehyde] had an IC50 above 100 µM.
